One assay deals with T1, CALCR (Homo sapiens, UniProt P30988).
T1 construct: host or cells: cells expressing CALCR (unnamed vendor)
T1 sequence (P30988 25-474): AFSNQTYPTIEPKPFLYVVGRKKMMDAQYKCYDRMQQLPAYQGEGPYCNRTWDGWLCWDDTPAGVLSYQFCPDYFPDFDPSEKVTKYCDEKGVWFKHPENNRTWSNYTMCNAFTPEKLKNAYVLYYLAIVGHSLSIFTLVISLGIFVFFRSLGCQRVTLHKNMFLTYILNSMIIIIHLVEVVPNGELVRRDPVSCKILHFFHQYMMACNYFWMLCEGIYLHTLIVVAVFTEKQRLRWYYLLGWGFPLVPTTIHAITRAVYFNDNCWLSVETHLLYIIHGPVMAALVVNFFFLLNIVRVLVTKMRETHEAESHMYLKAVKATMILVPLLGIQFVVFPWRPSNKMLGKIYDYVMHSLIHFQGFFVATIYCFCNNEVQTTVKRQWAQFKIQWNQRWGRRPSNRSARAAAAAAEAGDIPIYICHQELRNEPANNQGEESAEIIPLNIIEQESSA
As to the kind of experiment: class B GPCR panel cAMP assay, CALCR. It counts as cell-based. On the procedure:
(§1) The assays were performed according to the vendor's standard operating procedures with a positive control included for each receptor tested.

A further assay concerns the target T2, PTHR1 (Homo sapiens, UniProt Q03431).
T2 construct: host or cells: cells expressing PTHR1 (unnamed vendor)
T2 sequence (Q03431 27-593): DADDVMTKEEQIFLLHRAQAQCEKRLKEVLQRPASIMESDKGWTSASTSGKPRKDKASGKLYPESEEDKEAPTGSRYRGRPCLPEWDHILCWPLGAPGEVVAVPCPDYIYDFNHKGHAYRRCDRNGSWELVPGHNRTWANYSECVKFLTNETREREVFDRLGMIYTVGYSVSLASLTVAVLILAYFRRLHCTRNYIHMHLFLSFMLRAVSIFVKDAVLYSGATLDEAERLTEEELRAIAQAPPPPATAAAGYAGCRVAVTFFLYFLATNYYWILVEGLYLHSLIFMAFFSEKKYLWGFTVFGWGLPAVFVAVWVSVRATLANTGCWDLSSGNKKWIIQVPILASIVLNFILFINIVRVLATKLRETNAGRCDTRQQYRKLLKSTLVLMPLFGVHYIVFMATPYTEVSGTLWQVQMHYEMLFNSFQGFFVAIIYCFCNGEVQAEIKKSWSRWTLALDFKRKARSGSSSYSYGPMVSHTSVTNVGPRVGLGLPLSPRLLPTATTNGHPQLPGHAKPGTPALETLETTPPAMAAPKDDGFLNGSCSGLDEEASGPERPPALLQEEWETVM
In words: class B GPCR panel cAMP assay, PTHR1. It counts as cell-based. The note with it: read-out: Max response. On the procedure:
as §1

For `CC(C)C[C@H](NC(=O)[C@H](CCCCN)NC(=O)CNC(=O)[C@H](CC(C)C)NC(=O)[C@@H](NC(=O)[C@@H]1CSSC[C@H](N)C(=O)N[C@@H](CO)C(=O)N[C@@H](CC(N)=O)C(=O)N[C@@H](CC(C)C)C(=O)N[C@@H](CO)C(=O)N[C@@H]([C@@H](C)O)C(=O)N1)C(C)C)C(=O)N[C@@H](CO)C(=O)N[C@@H](CCC(N)=O)C(=O)N[C@@H](CCC(=O)O)C(=O)N[C@@H](CC(C)C)C(=O)N[C@@H](Cc1c[nH]cn1)C(=O)N[C@@H](CCCCN)C(=O)N[C@@H](CC(C)C)C(=O)N[C@@H](CCC(N)=O)C(=O)N[C@H](C(=O)N[C@@H](Cc1ccc(O)cc1)C(=O)N1CCC[C@H]1C(=O)N[C@@H](CCCNC(=N)N)C(=O)N[C@H](C(=O)N[C@@H](CC(N)=O)C(=O)N[C@H](C(=O)NCC(=O)N[C@@H](CO)C(=O)NCC(=O)N[C@H](C(=O)N1CCC[C@H]1C(N)=O)[C@@H](C)O)[C@@H](C)O)[C@@H](C)O)[C@@H](C)O` [Calcitonin], on CALCR (CALCR cAMP assay), the “Curve Bottom” value is listed as −6.2187, the “Curve Top” value is on record as 105 and the Hill was 1.5254. The Emax on CALCR (read-out: Max response) was 101%.

Turning to `CC[C@H](C)[C@H](NC(=O)[C@H](CCC(=O)O)NC(=O)[C@H](CO)NC(=O)[C@@H](NC(=O)[C@@H](N)CO)C(C)C)C(=O)N[C@@H](CCC(N)=O)C(=O)N[C@@H](CC(C)C)C(=O)N[C@@H](CCSC)C(=O)N[C@@H](Cc1cnc[nH]1)C(=O)N[C@@H](CC(N)=O)C(=O)N[C@@H](CC(C)C)C(=O)NCC(=O)N[C@@H](CCCCN)C(=O)N[C@@H](Cc1cnc[nH]1)C(=O)N[C@@H](CC(C)C)C(=O)N[C@@H](CC(N)=O)C(=O)N[C@@H](CO)C(=O)N[C@@H](CCSC)C(=O)N[C@@H](CCC(=O)O)C(=O)N[C@@H](CCCNC(=N)N)C(=O)N[C@H](C(=O)N[C@@H](CCC(=O)O)C(=O)N[C@@H](Cc1c[nH]c2ccccc12)C(=O)N[C@@H](CC(C)C)C(=O)N[C@@H](CCCNC(=N)N)C(=O)N[C@@H](CCCCN)C(=O)N[C@@H](CCCCN)C(=O)N[C@@H](CC(C)C)C(=O)N[C@@H](CCC(N)=O)C(=O)N[C@@H](CC(=O)O)C(=O)N[C@H](C(=O)N[C@@H](Cc1cnc[nH]1)C(=O)N[C@@H](CC(N)=O)C(=O)N[C@@H](Cc1ccccc1)C(=O)O)C(C)C)C(C)C` [PTH(1-34)], the Emax at PTHR1 turned out to be 93.6%.

The record behind these values is patent US10428134B2, “Immunoglobulins and uses thereof” (JANSSEN PHARMACEUTICA NV, priority 2016, dated 2019).
